Data taken from patent publication US20100003326A1, “DRUG DELIVERY DEVICE COMPRISING A PHARMACEUTICALLY OR BIOLOGICALLY ACTIVE COMPONENT AND AN INFRARED ABSORBING COMPOUND” (DOLPHYS TECHNOLOGIES B.V., priority 2006, published 2010).

Columns and labels:
[1] = Ibuprofen blood plasma concentration after infrared triggering of subcutaneous strand in rat; format: in vivo; settings: sc; for concentration at 1 day: first time; for concentration at 2 day: second time (next day)
Procedure: An object consisting of a compounded strand with a diameter of 2.0 mm and a length of 2.0 cm. […] Addition of ibuprofen led to a lowering of the Tg to about −1° C.
The strand was placed subcutaneously in a rat. After 1 day, the strand was irradiated perpendicularly to the length axis with the same laser diode module as in Example 1a, for 15 minutes, the laser power set at 750 mW and the distance between fiber exit and the skin of the rat being 20 mm. The next day this procedure was repeated again.
Blood samples were taken before, during and after triggering on both days. As a consequence of irradiation, the concentration of ibuprofen in the blood plasma increased the first time from below 5 ng/ml (no detection peak of LC-MS/MS was found) to 25 ng/ml and the second time from below 5 ng/ml (no peak was found) to 19 ng/ml.

[2] = Infrared-triggered release of ibuprofen from P(BMA-MMA) disc in physiological buffer; format: physicochemical; settings: physiological buffer at 30° C.; for speed of release of ibuprofen from the disc: P(BMA-MMA) disc, 290 ppm Lumogen IR 788, 5 wt % ibuprofen
Procedure: An object consisting of a pressed circular disc with a diameter of 2.5 cm and thickness of 2 mm was placed in a holder in a vessel completely containing 90 mL physiological buffer at 30° C. […] Addition of ibuprofen led to a lowering of the Tg to about 35° C. The disc was irradiated perpendicularly to the surface with the same laser diode module as in Example 1a, the laser power being 750 mW and the distance between fiber exit and disc 50 mm. The water layer between sample and disc was approximately 20 mm. A glass lid was placed on the vessel to prevent water evaporation. The vessel was completely filled with water, thus avoiding reflection and refraction effects at an additional air/water interface. The near-infrared irradiation only encountered an air to glass and a glass to water transition. Irradiation was applied in an alternating manner, periods of irradiation of 4 hours being alternated by periods of 20 hours without irradiation.

[3] = subcutaneous strand with 40 wt % ibuprofen, as a consequence of 15 minutes irradiation at 750 mW

SMILES: CC(C)Cc1ccc(C(C)C(=O)O)cc1 (stereo not shown) [ibuprofen]
- concentration at 1 day ([1]; subcutaneous poly(L,DL-Lactide) strand with 40 wt % ibuprofen, before irradiation, LC-MS/MS): < 5 ng/mL
- concentration at 1 day [1, 3]: 25 ng/mL
- concentration at 2 day [1, 3]: 19 ng/mL
- concentration at 2 day ([1]; subcutaneous strand with 40 wt % ibuprofen, before irradiation, LC-MS/MS): < 5 ng/mL
- release of ibuprofen after stopping irradiation ([2]; after stopping irradiation, same disc): fell virtually immediately to the base value
- speed of release of ibuprofen from the disc ([2]; during irradiation (785 nm laser, 750 mW, 4 hours periods)): around 3.9×10^−6 g/h
- speed of release of ibuprofen from the disc ([2]; without irradiation (base value)): less than 1×10^−6 g/h
